Calls of active or inactive are those of the source. The rule behind the calls is not given here. Starred links: 1 amine or outer side, 2 acyl side, 3 side chain; linkers in the order of their positions; H or OH if unused. Positions of bridges follow the written chain, without caps; N, C: chain ends. Non-standard residues stand in square brackets, D forms with d. Residues, ends and D or L forms follow the SMILES beside them. X2 = C[C@](CCCCCCCC=[*:3])(N[*:1])C(=O)[*:2]; X1 = C[C@@](CCCCC=[*:3])(N[*:1])C(=O)[*:2]
How the values were obtained:
Peritoneal macrophage [1] = assay: Antiinflammatory activity in mouse Peritoneal macrophage cells assessed as inhibition of LPS-induced IL-6 production at 20 microg/ml incubated for 6 hrs by ELISA analysis; assay type: functional, cell-based; settings: dose 20.0 µg/ml
HaCaT = assay: Cytotoxicity against human HaCaT cells assessed as survival rate at 100 microg/ml; assay type: functional; settings: read-out: Survival
[2] = Hemolytic activity at human Erythrocyte assessed as hemolysis at 100 microg/ml; assay type: toxicity, cell-based; settings: erythrocytes, at 100 µg/mL, read-out: Activity
Peritoneal macrophage [3] = assay: Antiinflammatory activity in mouse Peritoneal macrophage cells assessed as inhibition of LPS-induced TNF-alpha production at 20 microg/ml incubated for 6 hrs by ELISA analysis; assay type: functional, cell-based; settings: dose 20.0 µg/ml
Peritoneal macrophage [4] = assay: Cytotoxicity against mouse Peritoneal macrophage cells assessed as survival rate at 100 microg/ml; assay type: functional; settings: read-out: Survival
Staphylococcus aureus = assay: Antimicrobial activity against Staphylococcus aureus CMCC 26003 at 5 times MIC measured at 180 mins; assay type: functional, organism-based
Peritoneal macrophage [5] = assay: Cytotoxicity against mouse Peritoneal macrophage cells assessed as decrease in cell number at 20 microg/ml; assay type: functional, cell-based; settings: dose 20.0 µg/ml
4T1 = assay: Cytotoxicity against mouse 4T1 cells assessed as survival rate at 100 microg/ml; assay type: functional; settings: read-out: Survival
B16-F10 = assay: Cytotoxicity against mouse B16-F10 cells assessed as survival rate at 100 microg/ml; assay type: functional; settings: read-out: Survival

Molecule | Activity (Peritoneal macrophage [1]) | viability at 100 µg/mL (HaCaT) | hemolysis at 100 microg/ml [2] | Activity (Peritoneal macrophage [3]) | viability at 100 µg/mL (Peritoneal macrophage [4]) | Activity (Staphylococcus aureus) | Activity (Peritoneal macrophage [5]) | viability at 100 µg/mL (4T1) | viability at 100 µg/mL (B16-F10)
CC[C@H](C)[C@@H]1NC(=O)[C@H](CCCNC(=N)N)NC(=O)[C@H](CO)NC(=O)[C@H](Cc2c[nH]cn2)NC(=O)[C@H](CCCNC(=N)N)NC(=O)[C@H](CC(C)C)NC(=O)[C@H](C(C)C)NC(=O)[C@H](CCCNC(=N)N)NC(=O)CNC(=O)[C@H](CC(C)C)NC(=O)[C@H](CCC(N)=O)NC(=O)[C@H](CCCCN)NC(=O)[C@H](CCCNC(=N)N)NC(=O)[C@H](C(C)C)NC(=O)[C@H](CCCCN)NC(=O)[C@H](CCCCN)NC(=O)[C@H](Cc2ccccc2)NC(=O)[C@@H](N)CSSC[C@@H](C(=O)O)NC(=O)[C@H](Cc2ccccc2)NC(=O)[C@H](CCCNC(=N)N)NC(=O)[C@H](CCSC)NC(=O)[C@H](CCCNC(=N)N)NC(=O)CNC(=O)CNC(=O)[C@H](C(C)C)NC(=O)[C@H]([C@@H](C)O)NC1=O (H-CFKKVRKQLGRVLRHSRITVGGRMRFC-OH; disulfide 1-27) | Active | > 80% | < 5% | Active | > 80% | inactive | – | – | –
CC[C@H](C)[C@H](NC(=O)[C@H](CCCNC(=N)N)NC(=O)[C@H](CO)NC(=O)[C@H](Cc1c[nH]cn1)NC(=O)[C@H](CCCNC(=N)N)NC(=O)[C@H](CC(C)C)NC(=O)[C@@H](NC(=O)[C@@H]1CSSC[C@H](NC(=O)[C@@H](NC(=O)[C@H](CCCCN)NC(=O)[C@H](CCCCN)NC(=O)[C@@H](N)Cc2ccccc2)C(C)C)C(=O)N[C@@H](CCCNC(=N)N)C(=O)N[C@@H](CCCCN)C(=O)N[C@@H](CCC(N)=O)C(=O)N[C@@H](CC(C)C)C(=O)NCC(=O)N[C@@H](CCCNC(=N)N)C(=O)N1)C(C)C)C(=O)N[C@H](C(=O)N[C@H](C(=O)NCC(=O)NCC(=O)N[C@@H](CCCNC(=N)N)C(=O)N[C@@H](CCSC)C(=O)N[C@@H](CCCNC(=N)N)C(=O)N[C@@H](Cc1ccccc1)C(=O)O)C(C)C)[C@@H](C)O (H-FKKVCRKQLGRCVLRHSRITVGGRMRF-OH; disulfide 5-12) | Active | > 80% | < 5% | Active | > 80% | inactive | – | – | –
CC[C@H](C)[C@H](NC(=O)[C@H](CCCNC(=N)N)NC(=O)[C@H](CO)NC(=O)[C@H](Cc1c[nH]cn1)NC(=O)[C@H](CCCNC(=N)N)NC(=O)[C@]1(C)CCCC/C=C\CCCC[C@](C)(NC(=O)[C@H](CCC(N)=O)NC(=O)[C@H](CCCCN)NC(=O)[C@H](CCCNC(=N)N)NC(=O)[C@@H](NC(=O)[C@H](CCCCN)NC(=O)[C@H](CCCCN)NC(=O)[C@@H](N)Cc2ccccc2)C(C)C)C(=O)NCC(=O)N[C@@H](CCCNC(=N)N)C(=O)N[C@@H](C(C)C)C(=O)N1)C(=O)N[C@H](C(=O)N[C@H](C(=O)NCC(=O)NCC(=O)N[C@@H](CCCNC(=N)N)C(=O)N[C@@H](CCSC)C(=O)N[C@@H](CCCNC(=N)N)C(=O)N[C@@H](Cc1ccccc1)C(=O)O)C(C)C)[C@@H](C)O (H-FKKVRKQ[X1]GRV[X1]RHSRITVGGRMRF-OH; staple (Z) 8-12) | Active | – | < 5% | Active | – | inactive | – | – | –
CC[C@H](C)[C@H](NC(=O)[C@H](CCCNC(=N)N)NC(=O)[C@H](CO)NC(=O)[C@H](Cc1c[nH]cn1)NC(=O)[C@]1(C)CCCC/C=C\CCCCCCC[C@@](C)(NC(=O)[C@H](CCCNC(=N)N)NC(=O)[C@@H](NC(=O)[C@H](CCCCN)NC(=O)[C@H](CCCCN)NC(=O)[C@@H](N)Cc2ccccc2)C(C)C)C(=O)N[C@@H](CCC(N)=O)C(=O)N[C@@H](CC(C)C)C(=O)NCC(=O)N[C@@H](CCCNC(=N)N)C(=O)N[C@@H](C(C)C)C(=O)N[C@@H](CC(C)C)C(=O)N1)C(=O)N[C@H](C(=O)N[C@H](C(=O)NCC(=O)NCC(=O)N[C@@H](CCCNC(=N)N)C(=O)N[C@@H](CCSC)C(=O)N[C@@H](CCCNC(=N)N)C(=O)N[C@@H](Cc1ccccc1)C(=O)O)C(C)C)[C@@H](C)O (H-FKKVR[X2]QLGRVL[X1]HSRITVGGRMRF-OH; staple (Z) 6-13) | Active | – | < 5% | Active | – | inactive | – | – | –
CC[C@H](C)[C@H](NC(=O)[C@H](CCCNC(=N)N)NC(=O)[C@H](CO)NC(=O)[C@H](Cc1c[nH]cn1)NC(=O)[C@H](CCCNC(=N)N)NC(=O)[C@H](CC(C)C)NC(=O)[C@@H](NC(=O)[C@H](CCCNC(=N)N)NC(=O)CNC(=O)[C@]1(C)CCCC/C=C\CCCC[C@](C)(NC(=O)[C@H](CCCCN)NC(=O)[C@H](CCCCN)NC(=O)[C@@H](N)Cc2ccccc2)C(=O)N[C@@H](CCCNC(=N)N)C(=O)N[C@@H](CCCCN)C(=O)N[C@@H](CCC(N)=O)C(=O)N1)C(C)C)C(=O)N[C@H](C(=O)N[C@H](C(=O)NCC(=O)NCC(=O)N[C@@H](CCCNC(=N)N)C(=O)N[C@@H](CCSC)C(=O)N[C@@H](CCCNC(=N)N)C(=O)N[C@@H](Cc1ccccc1)C(=O)O)C(C)C)[C@@H](C)O (H-FKK[X1]RKQ[X1]GRVLRHSRITVGGRMRF-OH; staple (Z) 4-8) | Active | – | < 5% | Active | – | inactive | – | – | –
CC[C@H](C)[C@H](NC(=O)[C@H](CCCNC(=N)N)NC(=O)[C@H](CO)NC(=O)[C@H](Cc1c[nH]cn1)NC(=O)[C@H](CCCNC(=N)N)NC(=O)[C@H](CC(C)C)NC(=O)[C@@H](NC(=O)[C@H](CCCNC(=N)N)NC(=O)CNC(=O)[C@H](CC(C)C)NC(=O)[C@H](CCC(N)=O)NC(=O)[C@]1(C)CCCC/C=C\CCCC[C@](C)(NC(=O)[C@@H](N)Cc2ccccc2)C(=O)N[C@@H](CCCCN)C(=O)N[C@@H](C(C)C)C(=O)N[C@@H](CCCNC(=N)N)C(=O)N1)C(C)C)C(=O)N[C@H](C(=O)N[C@H](C(=O)NCC(=O)NCC(=O)N[C@@H](CCCNC(=N)N)C(=O)N[C@@H](CCSC)C(=O)N[C@@H](CCCNC(=N)N)C(=O)N[C@@H](Cc1ccccc1)C(=O)O)C(C)C)[C@@H](C)O (H-F[X1]KVR[X1]QLGRVLRHSRITVGGRMRF-OH; staple (Z) 2-6) | Active | – | < 5% | Active | – | inactive | – | – | –
CC[C@H](C)[C@H](NC(=O)[C@H](CCCNC(=N)N)NC(=O)[C@H](CO)NC(=O)[C@H](Cc1c[nH]cn1)NC(=O)[C@H](CCCNC(=N)N)NC(=O)[C@H](CC(C)C)NC(=O)[C@@H](NC(=O)[C@H](CCCNC(=N)N)NC(=O)CNC(=O)[C@]1(C)CCCC/C=C\CCCCCCC[C@@](C)(N)C(=O)N[C@@H](CCCCN)C(=O)N[C@@H](CCCCN)C(=O)N[C@@H](C(C)C)C(=O)N[C@@H](CCCNC(=N)N)C(=O)N[C@@H](CCCCN)C(=O)N[C@@H](CCC(N)=O)C(=O)N1)C(C)C)C(=O)N[C@H](C(=O)N[C@H](C(=O)NCC(=O)NCC(=O)N[C@@H](CCCNC(=N)N)C(=O)N[C@@H](CCSC)C(=O)N[C@@H](CCCNC(=N)N)C(=O)N[C@@H](Cc1ccccc1)C(=O)O)C(C)C)[C@@H](C)O (H-[X2]KKVRKQ[X1]GRVLRHSRITVGGRMRF-OH; staple (Z) 1-8) | Active | – | < 5% | Active | – | inactive | – | – | –
H-FGRFFKKVRKQLGRVLRHSRITVGGRMRF-OH | Active | – | – | Active | – | inactive | Active | < 40% | –
H-GRVLRHSRITVGGRMRF-OH | – | – | – | – | – | inactive | – | – | –
H-KVRKQLGRVLRHSRITVGGRMRF-OH | – | – | – | – | – | inactive | – | – | –
H-QLGRVLRHSRITVGGRMRF-OH | – | – | – | – | – | inactive | – | – | –
H-RFFKKVRKQLGRVLRHSRITVGGRMRF-OH | Active | – | – | Active | – | inactive | Active | < 40% | –
H-RHSRITVGGRMRF-OH | – | – | – | – | – | inactive | – | – | –
H-RKQLGRVLRHSRITVGGRMRF-OH | – | – | – | – | – | inactive | – | – | –
H-RRSRFGRFFKKVR-NH2 | – | – | – | – | – | inactive | – | – | –
H-RRSRFGRFFKKVRKQ-NH2 | – | – | – | – | – | inactive | – | – | –
H-RRSRFGRFFKKVRKQLG-NH2 | – | 80% | – | – | 80% | inactive | – | < 40% | < 40%
H-RRSRFGRFFKKVRKQLGRV-NH2 | – | 80% | – | – | 80% | inactive | – | < 40% | < 40%
H-RRSRFGRFFKKVRKQLGRVLR-NH2 | Active | 80% | – | Active | 80% | inactive | Active | < 40% | < 40%
H-RRSRFGRFFKKVRKQLGRVLRHS-NH2 | Active | 80% | – | Active | 80% | inactive | Active | < 40% | < 40%
H-RRSRFGRFFKKVRKQLGRVLRHSRITV-NH2 | Active | 80% | – | Active | 80% | inactive | Active | < 40% | < 40%
H-RRSRFGRFFKKVRKQLGRVLRHSRITVGG-NH2 | Active | 80% | – | Active | 80% | inactive | Active | < 40% | < 40%
H-RRSRFGRFFKKVRKQLGRVLRHSRITVGGRMRF-OH | – | – | – | – | – | inactive | – | – | –
H-SRFGRFFKKVRKQLGRVLRHSRITVGGRMRF-OH | Active | – | – | Active | – | inactive | Active | < 40% | –
H-VLRHSRITVGGRMRF-OH | – | – | – | – | – | inactive | – | – | –

Source: ChEMBL document CHEMBL6078680, “Improving the Stability and Anti-Infective Activity of Sea Turtle AMPs Using Multiple Structural Modification Strategies” (J Med Chem, 2024)
